# Read-outs that look alike come from different tables or passages of the source.
# How the values were obtained:
# Test in all cases: cell line proliferation assay (Cell Titer Glo)
# Type in all cases: cell-based, human
# BXPC3 = test system: BXPC3
# Description: (§1) The sensitivity of pancreatic cells to LGK974 treatment were tested in a cellular proliferation assay in vitro. Twenty four human pancreatic cancer cell lines were treated with or without LGK974. Cellular proliferation data was generated in 384 well format. Cells were harvested and resuspended in their appropriate growth medium at a density of 1.5×10^4 cells per mL. […] Plates were then transferred to incubators on the ACP-1 system (37° C., 5% CO2) and cells were allowed to attach overnight. […] Following compound addition, plates were returned to the incubator for 120 hours. The assay plates were read with the addition of 10 μL of 1× Cell Titer Glo (Promega G7573) according to the manufacturer's instructions. Plates were then incubated at room temperature for ten minutes and read on the integrated Perkin Elmer Viewlux (2 second exposure, 2× bin, high sensitivity). The raw data was normalized using the DMSO control wells within each plate and the curve fitting for IC50 determination was performed. Cell growth was measured five days later with Cell Titer Glo (Promega). […] As shown in TABLE 4 and Example 4, all four cell lines harbor RNF43 loss-of-function (LOF) mutations
# Capan-2 = test system: Capan-2
# Description: as §1
# HPAFII = test system: HPAFII
# Description: as §1
# HUP-T3 = test system: HUP-T3
# Description: as §1
# KP-1NL = test system: KP-1NL
# Description: as §1
# KP-1N = test system: KP-1N
# Description: as §1
# KP-2 = test system: KP-2
# Description: as §1
# PA-TU-8902 = test system: PA-TU-8902
# Description: as §1
# PA-TU-8988S = test system: PA-TU-8988S
# Description: as §1
# PA-TU-8988T = test system: PA-TU-8988T
# Description: as §1
# PK-1 = test system: PK-1
# Description: as §1
# PSN-1 = test system: PSN-1
# Description: as §1
# Panc 03.27 = test system: Panc 03.27
# Description: as §1
# Panc 05.04 = test system: Panc 05.04
# Description: as §1
# Panc 10.05 = test system: Panc 10.05
# Description: as §1
# Panc1 = test system: Panc1
# Description: as §1
# SU8686 = test system: SU8686
# Description: as §1
# SUIT-2 = test system: SUIT-2
# Description: as §1
# SW1990 = test system: SW1990
# Description: as §1
# TCC-PAN2 = conditions: for IC50: Cell Titer Glo, read-out: LGK974 IC50s in cell line proliferation assay
# Description: as §1
# YAPC = test system: YAPC
# Description: as §1
# [1] = Homo sapiens, 120 hours, Cell Titer Glo, read-out: LGK974 IC50s in cell line proliferation assay
compound,measurement,setting,value
"Cc1cc(-c2ncc(CC(=O)Nc3ccc(-c4cnccn4)cn3)cc2C)ccn1 [LGK974, 2-[5-methyl-6-(2-methylpyridin-4-yl)pyridin-3-yl]-N-[5-(pyrazin-2-yl)pyridin-2-yl]acetamide]",Inhibition fold change (1-Treated/Control),BXPC3; BxPC3,0.01
same,IC50,"BXPC3; Homo sapiens, BXPC-3, BXPC3, 120 hours, Cell Titer Glo, read-out: LGK974 IC50s in cell line proliferation assay",> 2000 nM
same,Inhibition fold change (1-Treated/Control),Capan-2,0.40
same,IC50,Capan-2; [1],1.8 nM
same,Inhibition fold change (1-Treated/Control),HPAFII,0.50
same,IC50,"HPAFII; Homo sapiens, HPAF-II, 120 hours, Cell Titer Glo, read-out: LGK974 IC50s in cell line proliferation assay",33.6 nM
same,Inhibition fold change (1-Treated/Control),HUP-T3,0.07
same,IC50,HUP-T3; [1],> 2000 nM
same,Inhibition fold change (1-Treated/Control),KP-1NL,0.00
same,IC50,KP-1NL; [1],> 2000 nM
same,Inhibition fold change (1-Treated/Control),KP-1N,0.01
same,IC50,KP-1N; [1],> 2000 nM
same,Inhibition fold change (1-Treated/Control),KP-2,0.06
same,IC50,KP-2; [1],> 2000 nM
same,Inhibition fold change (1-Treated/Control),PA-TU-8902,0.02
same,IC50,"PA-TU-8902; Homo sapiens, PaTu 8902, 120 hours, Cell Titer Glo, read-out: LGK974 IC50s in cell line proliferation assay",> 2000 nM
same,Inhibition fold change (1-Treated/Control),PA-TU-8988S,0.40
same,IC50,"PA-TU-8988S; Homo sapiens, PaTuÂ 8988s, 120 hours, Cell Titer Glo, read-out: LGK974 IC50s in cell line proliferation assay",11.6 nM
same,Inhibition fold change (1-Treated/Control),PA-TU-8988T,0.00
same,IC50,"PA-TU-8988T; Homo sapiens, PaTu 8988t, 120 hours, Cell Titer Glo, read-out: LGK974 IC50s in cell line proliferation assay",> 2000 nM
same,Inhibition fold change (1-Treated/Control),PK-1,0.00
same,IC50,PK-1; [1],> 2000 nM
same,Inhibition fold change (1-Treated/Control),PSN-1,0.06
same,IC50,"PSN-1; Homo sapiens, PSN1, 120 hours, Cell Titer Glo, read-out: LGK974 IC50s in cell line proliferation assay",> 2000 nM
same,IC50,"Panc 03.27; Homo sapiens, PANC-03-27, Panc 03.27, 120 hours, Cell Titer Glo, read-out: LGK974 IC50s in cell line proliferation assay",> 2000 nM
same,Inhibition fold change (1-Treated/Control),Panc 03.27; Panc03.27,0.06
same,IC50,"Panc 05.04; Homo sapiens, Panc 05.04, 120 hours, Cell Titer Glo, read-out: LGK974 IC50s in cell line proliferation assay",> 2000 nM
same,Inhibition fold change (1-Treated/Control),Panc 05.04; Panc05.04,0.09
same,IC50,"Panc 10.05; Homo sapiens, Panc1005, Panc 10.05, 120 hours, Cell Titer Glo, read-out: LGK974 IC50s in cell line proliferation assay",> 2000 nM
same,Inhibition fold change (1-Treated/Control),Panc 10.05; Panc10.05,0.02
same,Inhibition fold change (1-Treated/Control),Panc1,0.00
same,IC50,"Panc1; Homo sapiens, PANC-1, 120 hours, Cell Titer Glo, read-out: LGK974 IC50s in cell line proliferation assay",> 2000 nM
same,Inhibition fold change (1-Treated/Control),SU8686,0.03
same,IC50,"SU8686; Homo sapiens, SU.86.86, 120 hours, Cell Titer Glo, read-out: LGK974 IC50s in cell line proliferation assay",> 2000 nM
same,Inhibition fold change (1-Treated/Control),SUIT-2,0.00
same,IC50,SUIT-2; [1],> 2000 nM
same,Inhibition fold change (1-Treated/Control),SW1990,0.03
same,IC50,SW1990; [1],> 2000 nM
same,Inhibition fold change (1-Treated/Control),TCC-PAN2,0.02
same,IC50,TCC-PAN2; 120 hours,> 2000 nM
same,IC50,"TCC-PAN2; Homo sapiens, 120 h",> 1700 nM
same,Inhibition fold change (1-Treated/Control),YAPC,0.20
same,IC50,YAPC; [1],> 2000 nM

# Reference: patent publication US20170306409A1, “CANCER PATIENT SELECTION FOR ADMINISTRATION OF WNT SIGNALING INHIBITORS USING RNF43 MUTATION STATUS” (NOVARTIS AG, priority 2012, published 2017)
